From patent US6060471A, “Reduction of hair growth” (priority 1998, dated 2000)
Read-outs that look alike come from different tables or passages of the source.

How the values were obtained:
[1] = test system: flank organs of Golden Syrian hamsters (hair growth); experiment: Golden Syrian hamster assay (flank organ hair mass); format: in vivo; details: for inhibition in vivo at 10 %: read-out: % Inhibition (hair mass)
Description: Male intact Golden Syrian hamsters are considered acceptable models for human beard hair growth in that they display oval shaped flank organs, one on each side, each about 8 mm. in major diameter, which grow thick black and coarse hair similar to human beard hair. These organs produce hair in response to androgens in the hamster. To evaluate the effectiveness of a composition including an inhibitor of the hypusine biosynthetic pathway, the flank organs of each of a group of hamsters are depilated by applying a thioglycolate based chemical depilatory (Surgex) and/or shaved. To one organ of each animal 10 μl. of vehicle alone once a day is applied, while to the other organ of each animal an equal amount of vehicle containing an inhibitor of the hypusine biosynthetic pathway is applied. After thirteen applications (one application per day for five days a week), the flank organs are shaved and the amount of recovered hair (hair mass) from each is weighed. Percent-reduction of hair growth is calculated by subtracting the hair mass (mg) value of the test compound treated side from the hair mass value of the vehicle treated side; the delta value obtained is then divided by the hair mass value of the vehicle treated side, and the resultant number is multiplied by 100.
The above-described assay will be referred to herein as the "Golden Syrian hamster" assay.
This vehicle also was used in the testing described below.

[2] = test system: 18 kD human hair follicle protein (eIF-5A); experiment: Incorporation of 3H-spermidine into 18 kD human hair follicle proteins; format: cell-based; details: inhibitor 0.2 mM, follicles cultured 48 hours, 3H-spermidine 6 hours; for % Reduction of 3H-spermidine incorporation: 2880 min, 200 µM
Experimental: Human hair follicles derived from face lift procedures were isolated and placed in Williams E medium containing antibiotics, glutamine, insulin and hydrocortisone. Follicles were cultured for 48 hours at 37° C. in the presence of 1,6-diaminohexane (0.2 mM), 1,8-diaminooctane (0.2 mM), ciclopiroxolamine (0.2 mM) or hydralazine (0.2 mM). Control follicles were maintained in Williams E without any inhibitors present. At the end of the 48 hour period, ^3 H-spermidine […] was added to the culture for 6 hours. The hair follicles were washed in phosphate buffered saline to remove nonincorporated ^3 H-spermidine, and the follicles were homogenized in a buffer, pH 7.4, containing Tris (50 mM) and sucrose (0.5 mM). Hair follicle protein was applied to a 10% polyacrylamide gel. After the proteins were separated on the gel using a constant voltage (125 V), they were stained with coomassie blue. […] The protein bands were cutout of the gel and solubilized with BTS-450 (Beckman). The liquid scintillation fluid Econoscint (12 mL) was added to each sample, which was analyzed for ^3 H-spermidine incorporation by scintillation spectrometry.

[3] = Mesocricetus auratus, Table I, dose 10%, topical, 13 applications, pH per compound 6.0-8.5
[4] = Table I, dose 10%, topical, 13 applications, pH per compound 6.0-8.5

| Structure (SMILES) | inhibition in vivo at 10 % [1, 3] [%] | Hair Mass, Treated [1, 4] | Incorporation of 3H-spermidine [2] [pmol/mg protein] | % Reduction of 3H-spermidine incorporation [2] [%] | other results |
| --- | --- | --- | --- | --- | --- |
| NCCCCCCCN [1,7-Diaminoheptane, 1,7-diaminoheptane] | 67 ± 4 | 0.80 ± .11 mq |  |  |  |
| Cc1cc(C2CCCCC2)n(O)c(=O)c1 [Ciclopiroxolamine, ciclopiroxolamine] |  |  | < 1.0 | 100 | inhibition in vivo at 10 % ([1]; Mesocricetus auratus, topical, Table III, dose 10%, pH 9.0): 44%; % Inhibition (hair mass) ([1]; Table III, dose 10%, pH 9.0): 44 ± 17%; Hair Mass, Treated ([1]; Table III, dose 10%, pH 9.0): 0.92 ± .21 mg; % Reduction of 3H-spermidine incorporation ([2]; listed as ciclopiroxolamine): 47-100% |
| NNc1nncc2ccccc12 [Hydralazine, hydralazine] |  |  | 10.3 | 47 | inhibition in vivo at 5 % ([1]; Mesocricetus auratus, topical, Table III, dose 5%, pH 5.0): 33%; % Inhibition (hair mass) ([1]; Table III, dose 5%, pH 5.0): 33 ± 7%; Hair Mass, Treated ([1]; Table III, dose 5%, pH 5.0): 1.38 ± .14 mg; inhibition at 200 µM ([2]; Homo sapiens, 48 h, read-out: % Reduction of 3H-spermidine incorporation): 47 to 100% |
| NCCCCCCCCN [1,8-Diaminooctane, 1,8-diaminooctane] | 74 ± 6 | 0.70 ± .12 mq | < 1.0 | 100 | inhibition in vivo at 2 % ([1]; Mesocricetus auratus, topical, Table II, dose 2%, pH 9.0): 24 ± 8%; inhibition in vivo at 5 % ([1]; Mesocricetus auratus, topical, Table II, dose 5%, pH 9.0): 48 ± 10%; inhibition in vivo at 10 % ([1]; Mesocricetus auratus, topical, Table II, dose 10%, pH 8.0): 74 ± 6%; Hair Mass, Treated ([1]; Table II, dose 2%, pH 9.0): 1.88 ± .25 mg; Hair Mass, Treated ([1]; Table II, dose 5%, pH 9.0): 1.86 ± .37 mg; Hair Mass, Treated ([1]; Table II, dose 10%, pH 8.0): 0.70 ± .12 mg; % Reduction of 3H-spermidine incorporation ([2]; listed as 1,8-diaminooctane): 47-100% |
| NCCCCCCN [1,6-Diaminohexane, 1,6-diaminohexane] |  | 1.50 ± .20 mq | < 1.0 | 100 | inhibition in vivo at 10 % ([1]; Mesocricetus auratus, topical): 51 ± 5%; % Reduction of 3H-spermidine incorporation ([2]; listed as 1,6-diaminohexane): 47-100% |
| NCCCCCN [Cadaverine, cadaverine] | 43 ± 4 | 1.91 ± .15 mq |  |  |  |
| NCCCCCCCCCN [1,9-Diaminononane, 1,9-diaminononane] | 50 ± 13 | 1.27 ± .56 mq |  |  |  |
| NCCCCN(CCCN)Cc1ccccc1 [N^4 -Benzylspermidine, N^4 -benzyl-spermidine] | 62 ± 4 | 1.05 ± .12 mq |  |  |  |
